Measured values from patent EP0975604B1, “PYRIDAZINONES AS INHIBITORS OF CYCLOOXYGENASE-2” (MERCK FROSST CANADA & CO., priority 1997, dated 1998).

What was measured:
[1] = target: T1, COX-2 (Homo sapiens, UniProt P35354); experiment: Human whole blood assay, COX-2 (LPS-induced PGE2 production); assay type: cell-based; settings: 24 hours at 37°C, read-out: COX-2 (IC50 µM) HWB
T1 construct: endogenous in cells; host or cells: fresh heparinized human whole blood from volunteers, induced with LPS
T1 sequence (P35354 18-604): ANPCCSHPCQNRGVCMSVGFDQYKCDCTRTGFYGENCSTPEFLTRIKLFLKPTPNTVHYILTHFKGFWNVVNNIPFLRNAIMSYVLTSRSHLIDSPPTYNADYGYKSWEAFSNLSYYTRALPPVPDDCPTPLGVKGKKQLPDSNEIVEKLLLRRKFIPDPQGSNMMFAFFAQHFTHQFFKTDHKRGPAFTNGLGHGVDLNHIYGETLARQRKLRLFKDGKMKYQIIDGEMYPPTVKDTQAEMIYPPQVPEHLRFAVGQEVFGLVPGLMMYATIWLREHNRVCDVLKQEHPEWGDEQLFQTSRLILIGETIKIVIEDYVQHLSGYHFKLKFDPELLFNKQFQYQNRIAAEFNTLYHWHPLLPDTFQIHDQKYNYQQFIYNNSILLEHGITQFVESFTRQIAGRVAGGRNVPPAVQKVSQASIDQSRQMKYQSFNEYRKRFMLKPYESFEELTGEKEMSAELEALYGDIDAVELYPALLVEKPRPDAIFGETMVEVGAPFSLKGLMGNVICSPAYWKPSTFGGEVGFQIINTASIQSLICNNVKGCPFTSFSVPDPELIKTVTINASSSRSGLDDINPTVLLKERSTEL
Text: (§1) As well, platelets in whole blood contain a large amount of the COX-1 enzyme. Immediately following blood clotting, platelets are activated through a thrombin-mediated mechanism. This reaction results in the production of thromboxane B2 (TxB2) via activation of COX-1. Thus, the effect of test compounds on TxB2 levels following blood clotting can be examined and used as an index for COX-1 activity. Therefore, the degree of selectivity by the test compound can be determined by measuring the levels of PGE2 after LPS induction (COX-2) and TxB2 following blood clotting (COX-1) in the same assay.
Fresh blood is collected in heparinized tubes by venipuncture from both male and female volunteers. The subjects have no apparent inflammatory conditions and have not taken any NSAIDs for at least 7 days prior to blood collection. Plasma is immediately obtained from a 2mL blood aliquot to use as blank (basal levels of PGE2).

[2] = target: T1, COX-2; experiment: Whole cell assay for COX-2 using CHO transfected cell line (CHO [hCOX-2]); assay type: cell-based; settings: CHO[hCOX-2] cells, 10 µM AA, PGE2 synthesis
Experimental: Chinese hamster ovary (CHO) cell lines which have been stably transfected with an eukaryotic expression vector pCDNAIII containing either the human COX-1 or COX-2 cDNA's are used for the assay. These cell lines are referred to as CHO [hCOX-1] and CHO [hCOX-2], respectively. […] Cells (0.3 x 10^6 cells in 200 µl) are preincubated with 3 µl of the test drug or DMSO vehicle for 15 min at 37°C. […] Cells are then challenged in the presence or absence of drug with the AA/HBSS solution to yield a final concentration of 0.5 µM AA in the CHO[hCOX-1] assay and a final concentration of 10 µM AA in the CHO[hCOX-2] assay. […] The samples are centrifuged at 300 x g at 4°C for 10 min, and an aliquot of the clarified supernatant is appropriately diluted for the determination of PGE2 levels using an enzyme-linked immunoassay for PGE2 (Correlate PGE2 enzyme immunoassay kit, Assay Designs, Inc.). Cyclooxygenase activity in the absence of test compounds is determined as the difference in PGE2 levels of cells challenged with arachidonic acid versus the PGE2 levels in cells mock-challenged with ethanol vehicle. Inhibition of PGE2 synthesis by test compounds is calculated as a percentage of the activity in the presence of drug versus the activity in the positive control samples.
(§2) In the assay, inhibition is determined by measuring the amount of prostaglandin E2 (PGE2) synthesized in the presence of arachidonic acid, cyclooxygenase-1 or cyclooxygenase-2 and a putative inhibitor.

[3] = target: T2, COX-1 (Homo sapiens, UniProt P23219); experiment: Assay of COX-1 activity from U937 cell microsomes; assay type: biochemical; set-up: endogenous in cells; host or cells: U937 cells, 100,000 x g microsomal pellet; settings: PGE2, read-out: COX-1 (IC50 µM) U-937
Experimental: U 937 cells are pelleted by centrifugation at 500 x g for 5 min and washed once with phosphate-buffered saline and repelleted. Cells are resuspended in homogenization buffer consisting of 0.1 M Tris-HCl, pH 7.4, 10 mM EDTA, 2 µg/ml leupeptin, 2 µg/ml soybean trypsin inhibitor, 2 µg/ml aprotinin and 1 mM phenyl methyl sulfonyl fluoride. The cell suspension is sonicated 4 times for 10 sec and is centrifuged at 10,000 x g for 10 min at 4° C. The supernatant is centrifuged at 100,000 x g for 1 hr at 4 °C. The 100,000 x g microsomal pellet is resuspended in 0.1 M Tris-HCl, pH 7.4, 10 mM EDTA to approximately 7 mg protein/ml and stored at -80° C.
Assays are performed in duplicate in a final volume of 250 µl. Initially, 5 µl of DMSO vehicle or drug in DMSO are added to 20 µl of 0.1 M Tris-HCl buffer, pH 7.4 containing 10 mM EDTA in wells of a 96-deepwell polypropylene titre plate. 200 µl of the microsomal preparation are then added and pre-incubated for 15 min at room temperature before addition of 25 µl of […] arachidonic acid in […] Tris-HCl and 10 mM EDTA, pH 7.4. Samples are incubated for 40 min at room temperature and the reaction is stopped by the addition of 25 µl of 1 N HCl. Samples are neutralized with 25 µl of 1 N NaOH prior to quantitation of PGE2 content by radioimmunoassay (Dupont-NEN or Amersham assay kits). Cyclooxygenase activity is defined as the difference between PGE2 levels in samples incubated in the presence of arachidonic acid and ethanol vehicle.
as §2

[4] = target: T2, COX-1; experiment: Human whole blood assay, COX-1 (clotting-induced TxB2 production); assay type: cell-based; set-up: endogenous in cells; host or cells: platelets in fresh human whole blood left to clot; settings: 1 hour at 37°C, read-out: COX-1 (IC50 µM) HWB
Experimental: as §1, with “Human whole blood provides a protein and cell-rich milieu appropriate for the study of biochemical efficacy of anti-inflammatory compounds such as selective COX-2 inhibitors. […] This is consistent with the observation that COX-2 inhibitors have no effect on PGE2 production in normal blood. These inhibitors are active only after incubation of human whole blood with LPS, which induces COX-2. This assay can be used to evaluate the inhibitory effect of selective COX-2 inhibitors on PGE2 production. As” for “As”
Fresh blood is collected into vacutainers containing no anticoagulants. Aliquots of 500µL are immediately transferred to siliconized microcentrifuge tubes preloaded with 2µL of either DMSO or a test compound at final concentrations varying from 10nM to 30µM. […]

T2 sequence (P23219 24-599): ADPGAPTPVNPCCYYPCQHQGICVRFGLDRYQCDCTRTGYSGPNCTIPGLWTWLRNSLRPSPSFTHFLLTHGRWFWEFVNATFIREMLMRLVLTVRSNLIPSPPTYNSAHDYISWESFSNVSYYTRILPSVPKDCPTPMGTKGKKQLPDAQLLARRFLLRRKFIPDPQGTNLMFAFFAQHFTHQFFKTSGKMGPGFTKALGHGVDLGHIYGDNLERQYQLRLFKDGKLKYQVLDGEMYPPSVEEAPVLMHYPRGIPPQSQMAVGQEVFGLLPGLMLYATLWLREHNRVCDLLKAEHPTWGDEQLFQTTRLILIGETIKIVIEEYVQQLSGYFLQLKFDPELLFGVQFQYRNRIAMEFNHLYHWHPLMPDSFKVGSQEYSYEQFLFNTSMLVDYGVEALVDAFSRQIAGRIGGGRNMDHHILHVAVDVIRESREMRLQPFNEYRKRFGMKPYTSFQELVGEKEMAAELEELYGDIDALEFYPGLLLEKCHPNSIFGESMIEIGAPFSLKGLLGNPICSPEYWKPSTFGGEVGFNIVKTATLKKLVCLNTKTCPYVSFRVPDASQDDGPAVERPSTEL

| SMILES | IC50 [1] | IC50 [2] | IC50 [3] | IC50 [4] |
| --- | --- | --- | --- | --- |
| Cn1ncc(-c2ccc(S(C)(=O)=O)cc2)c(-c2ccccc2)c1=O [Example 2, 2-Methyl-5-(4-methylsulfonyl)phenyl-4-phenyl-2H-pyridazin-3-one] | 21 µM | 0.7 µM |  |  |
| CS(=O)(=O)c1ccc(-c2cnn(CC3CC3)c(=O)c2-c2ccccc2)cc1 [Example 3, 2-Cyclopropylmethyl-5-(4-methylsulfonyl)phenyl-4-phenyl-2H-pyridazin-3-one] | 1.3 µM | 0.07 µM | > 10 µM |  |
| CS(=O)(=O)c1ccc(-c2cnn(CC3CC3)c(=O)c2-c2ccc(F)c(F)c2)cc1 [Example 7, 2-Cyclopropylmethyl-4-(3,4-difluorophenyl)-5-(4-methylsulfonyl)phenyl-2H-pyridazin-3-one] | 3.2 µM | 0.16 µM | > 10 µM |  |
| CS(=O)(=O)c1ccc(-c2cnn(Cc3ccc(F)cc3)c(=O)c2-c2ccccc2)cc1 [Example 10, 2-(4-Fluorobenzyl)-5-(4-methylsulfonyl)phenyl-4-phenyl-2H-pyridazin-3-one] | 0.9 µM | 0.17 µM | > 10 µM |  |
| CS(=O)(=O)c1ccc(-c2cnn(Cc3ccccc3)c(=O)c2-c2ccc(F)cc2)cc1 [Example 12, 2-Benzyl-4-(4-fluorophenyl)-5-(4-methylsulfonyl)phenyl-2H-pyridazin-3-one] |  |  | 3 to 10 µM |  |

The next lines start with the values.

| IC50 [1] | IC50 [2] | IC50 [3] | IC50 [4] | SMILES |
| --- | --- | --- | --- | --- |
| 4.7 µM | 0.08 µM |  |  | CS(=O)(=O)c1ccc(-c2cnn(-c3ccccc3)c(=O)c2-c2ccccc2)cc1 [Example 1, 5-(4-Methylsulfonyl)phenyl-2-phenyl-4-phenyl-2H-pyridazin-3-one] |
| 11.1 µM | 0.5 µM | > 10 µM |  | CS(=O)(=O)c1ccc(-c2cnn(CC(F)(F)F)c(=O)c2-c2ccccc2)cc1 [Example 4, 5-(4-Methylsulfonyl)phenyl-4-phenyl-2-(2,2,2-trifluoroethyl)-2H-pyridazin-3-one] |
|  |  | > 10 µM | > 50 µM | CS(=O)(=O)c1ccc(-c2cnn(Cc3ccccc3)c(=O)c2-c2ccccc2)cc1 [Example 5, 2-Benzyl-5-(4-methylsulfonyl)phenyl-4-phenyl-2H-pyridazin-3-one] |
| 2.6 µM | 0.6 µM | > 10 µM |  | CC(C)n1ncc(-c2ccc(S(C)(=O)=O)cc2)c(-c2ccccc2)c1=O [Example 6, 2-Isopropyl-5-(4-methylsulfonyl)phenyl-4-phenyl-2H-pyridazin-3-one] |
| > 33 µM | ~2 µM | > 10 µM |  | CS(=O)(=O)c1ccc(-c2cnn(Cc3ccccn3)c(=O)c2-c2ccccc2)cc1 [Example 8, 5-(4-Methylsulfonyl)phenyl-4-phenyl-2-(2-pyridylmethyl)-2H-pyridazin-3-one] |
| 1.9 µM | 0.04 µM | 3 to 10 µM |  | CS(=O)(=O)c1ccc(-c2cnn(Cc3ccccc3)c(=O)c2-c2ccc(F)c(F)c2)cc1 [Example 9, 2-Benzyl-4-(3,4-difluorophenyl)-5-(4-methylsulfonyl)phenyl-2H-pyridazin-3-one] |
| 9.2 µM | 5 µM | > 10 µM |  | COC(=O)Cn1ncc(-c2ccc(S(C)(=O)=O)cc2)c(-c2ccccc2)c1=O [Example 11, 2-Carbomethoxymethyl-5-(4-methylsulfonyl)phenyl-4-phenyl-2H-pyridazin-3-one] |
